Results as given in patent publication US5045530A, “Pharmaceutical preparations” (priority 1986, dated 1991).
Where “and” joins values, the source holds several entries; their conditions need not be identical. Equal values may be shown once. Read-outs that look alike come from different tables or passages of the source.

Experiments:
[1] = critical micellization concentration (cmc); assay type: physicochemical
[2] = hydrodynamic (Stokes) radius / size of micelles and vesicles, inelastic light scattering; assay type: physicochemical
[3] = target: B. subtilis DNA polymerase III (Bacillus subtilis, UniProt P13267); assay: inhibition of DNA polymerase III by micellarly included Hg(CN)2 and Hg(CN)2 ascorbate; assay type: biochemical; conditions: micellarly included Hg(CN)2 / Hg(CN)2 ascorbate in the tenside named
Experimental: Analogously to example 2 10 mg Hg(CN)2 and 40 mg Na ascorbate at pH 7.0 are dissolved in 10 ml phosphate buffer. The suspension is subjected to an ultrasonic treatment at 0° C. for 5 min, slowly heated to 20° C. and centrifuged to a 10% (^w /w) linear glycerol gradient in a preparative ultracentrifuge at 1000 xg for 6 hours (20° C., Polyalomer tubes).
The inhibitor concentrations are given in 50% of the complete inhibition. The assay which was used is that according to Clements, J; D'Ambrosio, J; Brown, N.C; J.Biol.Chem. (1975) 250, 522 and Wright, G.E.; Brown, N.C; Biochem. Biophys. Acta (1976) 432, 37.

[4] = tested on: influenza virus type B; assay: inhibition of influenza B in vitro; assay type: cell-based
Experimental: Amantadine (1-adamantanamine-HCl) has a particular pharmadynamic action against influenza viruses (class A). The replication of most influenza A strains is inhibited in vitro between 0.2-0.6 μg/ml. Micellarly included amantadine in cationic micelles, in particular of the form (Het≡N--(CH2)x --CH3)Y⊖, effect a reduction of the concentration of pharmaceutical active substance to 0.05 μg/ml amantadine, measured by Hayden et al. (Plaque inhibition assay for drug susceptibility resting of influenza viruses. Antimicrob. Ag. Chemother. 1980, 17: […]; Grunert et al.; Sensitivity of influenza A/New Jersey 18/76/(Hswl-Nl) virus to amantadine HCl, J. Inf. Dis. 1977, 136, 297-300).
With a concentration of 0.01% by weight of amantadine for influenza virus type B corresponding to a concentration of 0.5 μg/ml pharmaceutical active substance in vitro.

[5] = tested on: influenza A strains; assay type: cell-based, influenza virus type A
[6] = tested on: influenza A virus; assay type: cell-based
[7] = tested on: influenza A strains; conditions: amantadine on its own, in vitro; cited from earlier work
[8] = micellar incorporation of active substances by dialysis, extinction at 260 nm; assay type: physicochemical; conditions: hexadecylpyridinium chloride micelles, 20° C., pH 5.5
[9] = tested on: influenza virus, subgroup A2; Herpes simplex virus HSV I-III; assay type: cell-based; conditions: monolayer cells infected with Herpes simplex virus type 1 or influenza virus type A2; with N+-tensides of formula I and II
[10] = tested on: pyrimidine biosynthesis; assay: pyrimidine biosynthesis; conditions: micellarly included
[11] = tested on: salivary secretion; conditions: in vivo
[12] = tested on: fungus; assay: antifungal effect in combination with N-tensides; conditions: combination with N+ tensides of formula I and II
[13] = target: T1, adenosine-desaminase (Homo sapiens, UniProt P00813); assay: antitumor activity of micellarly dissolved adenosine-desaminase inhibitors; conditions: dissolved micellarly according to formula I and II
T1 sequence (P00813 1-363): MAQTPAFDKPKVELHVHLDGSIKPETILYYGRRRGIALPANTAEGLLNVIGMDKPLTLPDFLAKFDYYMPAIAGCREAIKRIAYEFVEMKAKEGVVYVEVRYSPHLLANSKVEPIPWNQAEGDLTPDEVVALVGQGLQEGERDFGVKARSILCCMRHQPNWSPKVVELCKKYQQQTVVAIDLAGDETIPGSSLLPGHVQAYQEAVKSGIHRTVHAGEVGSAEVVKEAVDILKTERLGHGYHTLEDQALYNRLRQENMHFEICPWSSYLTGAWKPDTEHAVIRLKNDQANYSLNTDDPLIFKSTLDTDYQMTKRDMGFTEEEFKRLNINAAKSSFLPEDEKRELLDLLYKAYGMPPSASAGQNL

Sequence of B. subtilis DNA polymerase III (P13267 whole entry): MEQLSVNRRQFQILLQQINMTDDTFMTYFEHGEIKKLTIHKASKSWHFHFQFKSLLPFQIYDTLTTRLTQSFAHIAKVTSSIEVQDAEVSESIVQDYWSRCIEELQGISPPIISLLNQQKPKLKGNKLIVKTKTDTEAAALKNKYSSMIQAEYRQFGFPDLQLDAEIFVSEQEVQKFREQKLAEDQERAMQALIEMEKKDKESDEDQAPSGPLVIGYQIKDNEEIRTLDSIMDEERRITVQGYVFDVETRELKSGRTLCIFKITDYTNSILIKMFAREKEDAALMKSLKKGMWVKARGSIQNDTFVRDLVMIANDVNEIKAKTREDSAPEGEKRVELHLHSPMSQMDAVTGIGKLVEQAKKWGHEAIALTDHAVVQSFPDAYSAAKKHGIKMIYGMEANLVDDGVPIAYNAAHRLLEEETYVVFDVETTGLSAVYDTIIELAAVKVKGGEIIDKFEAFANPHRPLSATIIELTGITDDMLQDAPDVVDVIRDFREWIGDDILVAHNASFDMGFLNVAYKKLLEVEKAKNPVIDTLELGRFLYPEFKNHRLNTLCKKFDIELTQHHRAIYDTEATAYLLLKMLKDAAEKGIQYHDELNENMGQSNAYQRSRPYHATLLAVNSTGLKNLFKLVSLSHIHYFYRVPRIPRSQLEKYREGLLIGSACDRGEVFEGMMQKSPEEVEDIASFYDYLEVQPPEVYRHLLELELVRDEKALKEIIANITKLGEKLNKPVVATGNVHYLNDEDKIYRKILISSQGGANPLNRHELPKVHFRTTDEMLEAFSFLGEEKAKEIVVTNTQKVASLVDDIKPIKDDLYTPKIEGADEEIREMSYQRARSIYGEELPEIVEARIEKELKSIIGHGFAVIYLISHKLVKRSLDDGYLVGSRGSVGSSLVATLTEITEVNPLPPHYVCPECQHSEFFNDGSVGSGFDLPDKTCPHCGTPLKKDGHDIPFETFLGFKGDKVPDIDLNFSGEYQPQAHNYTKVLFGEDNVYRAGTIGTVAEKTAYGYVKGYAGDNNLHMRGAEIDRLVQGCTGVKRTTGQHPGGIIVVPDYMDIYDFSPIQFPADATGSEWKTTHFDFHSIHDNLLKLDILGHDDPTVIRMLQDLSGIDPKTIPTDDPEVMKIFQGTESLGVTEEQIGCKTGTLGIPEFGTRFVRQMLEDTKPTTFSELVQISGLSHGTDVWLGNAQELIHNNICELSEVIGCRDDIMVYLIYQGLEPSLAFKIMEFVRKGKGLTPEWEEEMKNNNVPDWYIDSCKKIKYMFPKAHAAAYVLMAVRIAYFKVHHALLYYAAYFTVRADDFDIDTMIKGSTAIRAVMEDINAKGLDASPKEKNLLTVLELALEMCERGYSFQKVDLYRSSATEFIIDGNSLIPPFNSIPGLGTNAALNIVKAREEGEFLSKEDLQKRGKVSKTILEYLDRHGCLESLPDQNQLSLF

With 2,5-Dimethyl-3-hexadecyl-thiazolium the “cmc × 10^-6 M” value ([1]; Table 2, HET≡N+-(CH2)x-CH3 Y-) was 15.00 × 10^-6 M.
In the case of 2,6-Dihydroxy-dodecyl-pyrimidinium, the “cmc × 10^-6 M” value ([1]; Table 2, HET≡N+-(CH2)x-CH3 Y-) was 1.90 × 10^-6 M.
For 2-Carboxamid-3-hexadecyl-1,4-pyridinium, the “<RH> hydrodynamic radius” value ([2]; Table 3, counter ion Y- = NO3-) was 440 Å.
With “2-Hydroxy,5-methyl,6-amino-hexadecyl-pyrimidinium” the “cmc × 10^-6 M” value ([1]; Table 2, HET≡N+-(CH2)x-CH3 Y-) was 1.00 × 10^-6 M.
For “2-Hydroxy,6-amino-hexadecyl-pyrimidinium”, the “cmc × 10^-6 M” value ([1]; Table 2, HET≡N+-(CH2)x-CH3 Y-) was 2.00 × 10^-6 M.
In the case of 2-carboxamid-3-dodecyl-1,4-pyridinium, the “<RH> hydrodynamic radius” value ([2]; Table 3, counter ion Y- = NO3-) was 366 Å.
For “3,5-bis[n-hexadecyloxy-carbonyl]-N-methyl-pyridinium”, the competitive with [3] was “dGTP”.
In the case of 3-Dodecyl-6-methyl-benzimidazolium, the “cmc × 10^-6 M” value ([1]; Table 2, HET≡N+-(CH2)x-CH3 Y-) was 7.30 × 10^-6 M.
In the case of “3-Hexadecyl-5,6-dihydroxy-benzthiazolium”, the “cmc × 10^-6 M” value ([1]; Table 2, HET≡N+-(CH2)x-CH3 Y-) was 7.90 × 10^-6 M.
For 3-Hexadecyl-6-methyl-benzimidazolium, the “cmc × 10^-6 M” value ([1]; Table 2, HET≡N+-(CH2)x-CH3 Y-) was 17.00 × 10^-6 M.
For 3-Hexadecylbenzimidazolium, the “cmc × 10^-6 M” value ([1]; Table 2, HET≡N+-(CH2)x-CH3 Y-) was 6.70 × 10^-6 M.
With 3-Hexadecylthiazolium the “cmc × 10^-6 M” value ([1]; Table 2, HET≡N+-(CH2)x-CH3 Y-) was 0.91 × 10^-6 M.
In the case of “3-[[(Dimethylamino)-carboxyl]oxyl]-1-hexadecyl-pyridinium”, the competitive with [3] was “dATP”.
With 4-Methyl- -2-hexadecyl-pyrazolium the “cmc × 10^-6 M” value ([1]; Table 2, HET≡N+-(CH2)x-CH3 Y-) was 0.70 × 10^-6 M.
With 5-Methyl-1-hexadecylimidazolium the “cmc × 10^-6 M” value ([1]; Table 2, HET≡N+-(CH2)x-CH3 Y-) was 3.90 × 10^-6 M.
For 8-Ketohexadecylpyridinium, the competitive with [3] was “dGTP”.
In the case of `Cl.NC12CC3CC(CC(C3)C1)C2` [1-adamantaneamine HCl, 1-adamantanamine-HCl], the “activity against influenza virus type B” value ([4]; amantadine on its own) was “practically no activity”, the “concentration showing inhibition of influenza virus type B” value ([4]; micellarly included in cationic tensides, 0.01% by weight of amantadine) was 0.5 µg/mL and the “concentration of active substance for inhibition” value [5] was 0.05 µg/mL. The “Inhibition, 10log (pfu/ml of the inhibitor)/(pfu/ml check)” value [6] was -1.11, the “Titration of infection, Plaque forming units” value [6] was 2 × 10^6 and the “concentration inhibiting replication of most influenza A strains” value [7] was 0.2 to 0.6 µg/mL.
In the case of `CCCCCCCCCCCCCCCC[n+]1c(O)ncc(F)c1O` [2,6-Dihydroxy,5-Fluor,hexadecyl-pyrimidinium], the “cmc × 10^-6 M” value ([1]; Table 2, HET≡N+-(CH2)x-CH3 Y-) was 0.85 × 10^-6 M.
With `CCCCCCCCCCCCCCCC[n+]1cc(F)c(O)cc1O` [2,-4-Dihydroxy-5-Fluoro hexadecyl-pyridinium] the “<RH> hydrodynamic radius” value [2] was 210 and 150.
In the case of `CCCCCCCCCCCCCCCC[n+]1cc(C)c(O)cc1O` [2,-4-Dihydroxy-5-methyl-hexadecyl-pyridinium], the “<RH> hydrodynamic radius” value [2] was 1000 and 1500.
For `CCCCCCCCCCCCCCCC[n+]1ccnc(C(N)=O)c1` [2-Carboxamide-4-hexadecyl-1,4-diazinium], the “cmc × 10^-6 M” value ([1]; Table 2, HET≡N+-(CH2)x-CH3 Y-) was 0.30 × 10^-6 M.
With `CCCCCCCCCCCC[n+]1csc2ccccc21` [3-Dodocyl-benzthiazolium] the “cmc × 10^-6 M” value ([1]; Table 2, HET≡N+-(CH2)x-CH3 Y-) was 10.90 × 10^-6 M.
In the case of `CCCCCCCCCCCCCCCCC(CCCCCCCCCCCCCCCC)c1cc[n+](C)cc1.[Cl-]` [4-(17-tritriacontyl)-N-methylpyridinium chloride], the competitive with [3] was “dGTP”.
For `CCCCCCCCCCCC[n+]1ccccc1` [Dodecyl-pyridinium], the “cmc × 10^-6 M” value [1] was 1.52.
For `O=c1[nH]c(=O)n([C@H]2C[C@H](O)[C@@H](CO)O2)cc1I` [Idoxuridine, idoxuridine], the “Yield (%) of micellar incorporation” value ([8]; Table 1 experiment 1, Trifluoroamame 5, Idoxuridine […]100 ml) was 95%, the “Yield (%) of micellar incorporation” value ([8]; Table 1 experiment 2, Trifluoroamame 7.5, Idoxuridine 10.5 mg/100 ml) was 98% and the “Yield (%) of micellar incorporation” value ([8]; Table 1 experiment 3, Trifluoroamame 10.0, Idoxuridine 12.5 mg/100 ml) was 98%. For the same compound, the “Yield (%) of micellar incorporation” value ([8]; Table 1 experiment 4, Trifluoroamame 12.0, Idoxuridine […]100 ml) was 98%, the “Yield (%) of micellar incorporation” value ([8]; Table 1 experiment 5, Trifluoroamame 15.0, Idoxuridine 17.0 mg/100 ml) was 97% and the “Yield (%) of micellar incorporation” value ([8]; Table 1 experiment 6, Trifluoroamame 17.0, Idoxuridine 20.0 mg/100 ml) was 96%. The “Yield (%) of micellar incorporation” value ([8]; Table 1 experiment 7, Trifluoroamame 20.0, Idoxuridine 21.5 mg/100 ml) was 98%, the “Yield (%) of micellar incorporation” value ([8]; Table 1 experiment 8, Trifluoroamame 25.0, Idoxuridine 23.0 mg/100 ml) was 100% and the “Yield (%) of micellar incorporation” value ([8]; Table 1 experiment 9, Trifluoroamame 30.0, Idoxuridine 24.0 mg/100 ml) was 100%. For the same compound, the “Yield (%) of micellar incorporation” value ([8]; Table 1 experiment 10, Trifluoroamame 50.0, Idoxuridine 30.0 mg/100 ml) was 100% and the “lowering of the inhibition concentration compared with applications without quaternary ammonium bases” value [9] was 30%.
For `O=C(O)C[C@H](NC(=O)CP(=O)(O)O)C(=O)O` [N-(phosphonoacetyl)-aspartate], the “intensification of the effect on pyrimidine biosynthesis (blocking of the carbamylation of aspartate)” value [10] was 20 fold.
For `CN1[C@@H]2CC[C@H]1C[C@@H](OC(=O)C(CO)c1ccccc1)C2` (some centres unmarked) [atropine], the “intensification of the inhibitory effect on salivary secretion” value [11] was “tenfold”.
With `Clc1ccccc1C(c1ccccc1)(c1ccccc1)n1ccnc1` [clotrimazole] the “intensification of the antifungal effect by N+ tensides” value (“intensification … by N+ tensides” below) [12] was “≈ 35%”.
In the case of `Nc1ccn([C@@H]2O[C@H](CO)[C@@H](O)[C@@H]2O)c(=O)n1` [cytarabine], the “lowering of the inhibition concentration compared with applications without quaternary ammonium bases” value [9] was 30%.
In the case of `Clc1ccc(COC(Cn2ccnc2)c2ccc(Cl)cc2Cl)cc1` (centres unmarked) [econazole], the “intensification … by N+ tensides” value [12] was “≈ 35%”.
In the case of `CCCCCCCCCCCCCCCC[n+]1ccccc1.[Cl-]` [hexadecylpyridinium chloride, N-(n-hexadecyl)-pyridinium chloride, reference compound], the “RH (Å) (±5.0 Å)” value ([2]; pH 5.5) was 45.0 and 50.5 and 60.0 and 65.0 and 71.5 and 75.0 and 78.0.
In the case of `Clc1ccc(COC(Cn2ccnc2)c2ccc(Cl)cc2Cl)c(Cl)c1` (centres unmarked) [miconazole], the “intensification … by N+ tensides” value [12] was “≈ 35%”.
With `NC(=O)c1[nH]nc([C@@H]2O[C@H](CO)[C@@H](O)[C@H]2O)c1O` [pyrazofurine] the “irreversible inhibition of pyrimidine biosynthesis” value [10] was 20%.
For `CC(N)C12CC3CC(CC(C3)C1)C2.Cl` (stereo not drawn) [rimantadine, α-methyl-1-adamantanemethylamine hydrochloride], the “dose with the same in vitro effect as the pure active substance” value [5] was 0.05 µg/mL.
In the case of `O=c1[nH]c(=O)n([C@H]2C[C@H](O)[C@@H](CO)O2)cc1C(F)(F)F` [trifluorothymidine], the “lowering of the inhibition concentration compared with applications without quaternary ammonium bases” value [9] was 30%.
In the case of “Cetyl-2,3-dihydroxy-propyl-hexadecyl-pyridinium”, the “<RH> hydrodynamic radius” value [2] was 150.0 and 180.4 and 210.4 and 120.0.
With Dodecyl-pyrimidinium the “cmc × 10^-6 M” value ([1]; Table 2, HET≡N+-(CH2)x-CH3 Y-) was 1.20 × 10^-6 M.
In the case of Hexadecyl-4-Hydroxy-pyridinium, the “cmc × 10^-6 M” value ([1]; Table 2, HET≡N+-(CH2)x-CH3 Y-) was 0.95 × 10^-6 M.
In the case of Hexadecyl-pyrimidinium, the “cmc × 10^-6 M” value ([1]; Table 2, HET≡N+-(CH2)x-CH3 Y-) was 2.50 × 10^-6 M.
With N-Hexadecyl-4-cetyl-imidazolinium the “<RH> hydrodynamic radius” value [2] was 100 and 150.
With erythro-9-(2-hydroxy-3-nonyl)-adenine the “intensification of the antitumor activity” value [13] was “tenfold”.
